Results taken from ChEMBL document CHEMBL3988442, “University of Dundee, Small-Polar-MMV Screening Library” (2021).
pIC50: −log10 of the molar value. Several values for one entry are separate records, joined by “and”; a condition that tells them apart may be missing. Identical values can stand only once.

Assays:
Tryptophan--tRNA ligase = Tryptophan--tRNA ligase (Mycobacterium tuberculosis (strain ATCC 25618 / H37Rv), UniProt P9WFT3); experiment: Biochemical assay for Mt-TrpRS; format: functional
[1] = target: Polyketide synthase Pks13 (Mycobacterium tuberculosis (strain ATCC 25618 / H37Rv), UniProt I6X8D2); experiment: Mycobacterium tuberculosis Polyketide synthase 13 Thioesterase (PKS13); format: functional
Lysine--tRNA ligase = Lysine--tRNA ligase (Plasmodium falciparum (isolate 3D7), UniProt Q8IDJ8); experiment: Pf-KRS-1 (Lysyl-RNA Synthetase-1, KRS-1, cytosolic KRS) from Plasmodium falciparum. Inhibitor assay, 384 well plate, luminescence read.; format: functional
[2] = microbe, parasite or virus in culture; conditions: Mycobacterium tuberculosis, 96 h, read-out: pIC50 (converted)
[3] = microbe, parasite or virus in culture; conditions: Mycobacterium tuberculosis, 72 h, read-out: pIC50 (converted)
ClpP1P2 = ClpP1P2 (Mycobacterium tuberculosis (strain ATCC 25618 / H37Rv), UniProt P9WPC3+P9WPC5); experiment: in vitro assay to detect presence of AMC directly proportional to the activity of ClpP1P2. GHDDI collaboration.; format: functional
[4] = In vitro enzyme assay to detect hydrolysis of chlorophenol red-beta-D-[…] directly proportional to the number of Toxoplasma stably expressing beta-galactosidase; format: functional, organism-based, Toxoplasma gondii; conditions: Toxoplasma gondii
[5] = target: T1, Coenzyme A biosynthesis bifunctional protein CoaBC (Mycobacterium tuberculosis (strain ATCC 25618 / H37Rv), UniProt P9WNZ1); experiment: Biomol Green assay for MtCoaBC inhibitor, OD650 read; format: functional
T1 sequence (P9WNZ1 whole entry): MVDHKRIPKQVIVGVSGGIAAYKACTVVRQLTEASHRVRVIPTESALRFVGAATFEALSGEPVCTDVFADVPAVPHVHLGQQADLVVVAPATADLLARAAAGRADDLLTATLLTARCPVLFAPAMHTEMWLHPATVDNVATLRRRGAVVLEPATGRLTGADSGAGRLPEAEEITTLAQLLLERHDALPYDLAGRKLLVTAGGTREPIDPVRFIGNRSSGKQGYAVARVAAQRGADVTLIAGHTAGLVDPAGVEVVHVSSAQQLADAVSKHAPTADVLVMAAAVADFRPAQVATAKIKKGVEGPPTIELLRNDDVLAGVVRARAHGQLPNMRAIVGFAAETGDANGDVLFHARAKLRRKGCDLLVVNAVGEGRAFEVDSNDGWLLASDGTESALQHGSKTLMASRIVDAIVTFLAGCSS

Histidine--tRNA ligase = target: T2, Histidine--tRNA ligase (Leishmania infantum, UniProt A4I591); experiment: Leishmania infantum Histidine tRNA synthetase (LdHisRS); format: functional
T2 sequence (A4I591 whole entry): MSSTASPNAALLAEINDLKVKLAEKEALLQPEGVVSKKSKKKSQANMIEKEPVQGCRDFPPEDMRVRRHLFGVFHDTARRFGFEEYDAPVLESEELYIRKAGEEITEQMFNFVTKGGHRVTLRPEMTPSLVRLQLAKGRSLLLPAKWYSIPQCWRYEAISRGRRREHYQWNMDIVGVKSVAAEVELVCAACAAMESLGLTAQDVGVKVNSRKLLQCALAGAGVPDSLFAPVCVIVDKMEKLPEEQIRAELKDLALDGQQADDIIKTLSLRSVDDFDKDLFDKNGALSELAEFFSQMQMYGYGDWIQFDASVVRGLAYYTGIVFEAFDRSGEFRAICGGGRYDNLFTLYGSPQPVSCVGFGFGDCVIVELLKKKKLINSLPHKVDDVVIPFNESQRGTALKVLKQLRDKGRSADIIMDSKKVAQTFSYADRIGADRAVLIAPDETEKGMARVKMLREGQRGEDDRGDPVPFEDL

Leishmania donovani = experiment: Leishmania intramacrophage assay; format: functional, organism-based; conditions: Leishmania donovani

Chain of Lysine--tRNA ligase (Q8IDJ8 whole entry): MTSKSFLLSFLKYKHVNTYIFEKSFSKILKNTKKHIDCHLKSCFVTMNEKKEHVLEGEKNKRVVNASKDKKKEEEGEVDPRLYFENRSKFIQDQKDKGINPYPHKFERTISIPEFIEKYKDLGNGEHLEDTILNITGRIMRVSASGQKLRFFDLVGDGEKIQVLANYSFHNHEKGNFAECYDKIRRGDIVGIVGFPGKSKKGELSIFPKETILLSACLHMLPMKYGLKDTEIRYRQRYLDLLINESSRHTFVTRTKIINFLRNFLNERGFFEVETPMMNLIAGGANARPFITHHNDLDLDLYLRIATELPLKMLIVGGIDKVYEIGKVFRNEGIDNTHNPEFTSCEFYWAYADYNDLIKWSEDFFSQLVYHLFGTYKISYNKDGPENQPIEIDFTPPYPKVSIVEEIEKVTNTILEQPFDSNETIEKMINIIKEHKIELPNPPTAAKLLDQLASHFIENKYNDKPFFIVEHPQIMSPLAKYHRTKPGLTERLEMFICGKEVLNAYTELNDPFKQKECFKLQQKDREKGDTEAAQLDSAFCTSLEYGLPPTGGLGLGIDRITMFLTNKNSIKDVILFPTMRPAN
Chain of Polyketide synthase Pks13 (I6X8D2 whole entry): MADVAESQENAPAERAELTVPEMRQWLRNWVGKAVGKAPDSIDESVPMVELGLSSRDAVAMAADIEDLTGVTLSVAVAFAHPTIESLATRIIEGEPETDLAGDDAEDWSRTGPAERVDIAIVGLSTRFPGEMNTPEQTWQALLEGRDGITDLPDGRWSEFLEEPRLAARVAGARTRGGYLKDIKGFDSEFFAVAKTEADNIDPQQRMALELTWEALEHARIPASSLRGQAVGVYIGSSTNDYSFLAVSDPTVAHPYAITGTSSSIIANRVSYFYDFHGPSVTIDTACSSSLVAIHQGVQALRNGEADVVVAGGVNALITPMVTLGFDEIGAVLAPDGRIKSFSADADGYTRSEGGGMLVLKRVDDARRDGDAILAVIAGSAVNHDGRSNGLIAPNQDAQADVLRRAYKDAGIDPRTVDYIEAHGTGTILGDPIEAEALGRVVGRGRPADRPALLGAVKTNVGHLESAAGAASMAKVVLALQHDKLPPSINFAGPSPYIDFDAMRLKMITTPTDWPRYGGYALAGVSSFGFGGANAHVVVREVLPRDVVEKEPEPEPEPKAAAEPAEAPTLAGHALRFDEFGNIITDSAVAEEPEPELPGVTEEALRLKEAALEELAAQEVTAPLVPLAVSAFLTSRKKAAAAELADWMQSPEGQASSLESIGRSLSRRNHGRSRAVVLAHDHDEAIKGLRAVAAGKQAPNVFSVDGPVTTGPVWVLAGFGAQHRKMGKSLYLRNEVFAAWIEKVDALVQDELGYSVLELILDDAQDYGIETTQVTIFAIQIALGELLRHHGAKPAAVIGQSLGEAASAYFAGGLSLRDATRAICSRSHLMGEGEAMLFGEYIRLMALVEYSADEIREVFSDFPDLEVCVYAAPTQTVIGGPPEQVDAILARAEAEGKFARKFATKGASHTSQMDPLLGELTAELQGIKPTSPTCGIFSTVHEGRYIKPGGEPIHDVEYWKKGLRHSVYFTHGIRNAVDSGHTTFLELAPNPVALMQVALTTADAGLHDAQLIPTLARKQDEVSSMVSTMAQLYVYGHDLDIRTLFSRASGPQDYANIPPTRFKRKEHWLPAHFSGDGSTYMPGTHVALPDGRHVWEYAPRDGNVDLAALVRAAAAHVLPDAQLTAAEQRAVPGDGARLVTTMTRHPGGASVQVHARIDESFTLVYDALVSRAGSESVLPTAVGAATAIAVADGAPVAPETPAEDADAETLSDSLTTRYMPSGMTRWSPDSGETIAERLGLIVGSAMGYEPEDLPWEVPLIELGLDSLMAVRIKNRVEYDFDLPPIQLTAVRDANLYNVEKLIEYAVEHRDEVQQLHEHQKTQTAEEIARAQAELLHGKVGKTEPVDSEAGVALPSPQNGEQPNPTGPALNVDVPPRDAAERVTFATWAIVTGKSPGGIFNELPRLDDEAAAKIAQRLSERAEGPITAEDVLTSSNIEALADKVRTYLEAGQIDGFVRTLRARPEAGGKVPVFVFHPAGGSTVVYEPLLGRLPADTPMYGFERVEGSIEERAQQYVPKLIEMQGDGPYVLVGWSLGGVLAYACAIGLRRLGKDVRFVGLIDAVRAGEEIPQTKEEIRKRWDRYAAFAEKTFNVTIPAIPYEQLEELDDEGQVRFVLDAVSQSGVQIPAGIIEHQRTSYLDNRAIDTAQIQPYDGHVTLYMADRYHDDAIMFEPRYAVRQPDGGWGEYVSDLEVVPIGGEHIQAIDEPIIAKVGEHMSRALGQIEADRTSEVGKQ
Chain of ClpP1P2 (P9WPC5 whole entry): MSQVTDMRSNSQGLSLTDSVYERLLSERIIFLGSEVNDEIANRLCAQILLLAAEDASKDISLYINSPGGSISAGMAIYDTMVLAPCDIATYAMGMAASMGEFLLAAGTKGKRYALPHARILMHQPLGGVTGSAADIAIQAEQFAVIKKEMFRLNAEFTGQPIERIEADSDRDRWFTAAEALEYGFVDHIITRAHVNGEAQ
Chain of ClpP1P2 (P9WPC3 whole entry): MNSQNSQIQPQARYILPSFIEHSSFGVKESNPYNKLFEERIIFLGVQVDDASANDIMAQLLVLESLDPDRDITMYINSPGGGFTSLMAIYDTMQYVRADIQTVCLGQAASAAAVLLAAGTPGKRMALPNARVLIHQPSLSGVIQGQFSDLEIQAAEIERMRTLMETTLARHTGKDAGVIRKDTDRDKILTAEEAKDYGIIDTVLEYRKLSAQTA
Chain of Tryptophan--tRNA ligase (P9WFT3 whole entry): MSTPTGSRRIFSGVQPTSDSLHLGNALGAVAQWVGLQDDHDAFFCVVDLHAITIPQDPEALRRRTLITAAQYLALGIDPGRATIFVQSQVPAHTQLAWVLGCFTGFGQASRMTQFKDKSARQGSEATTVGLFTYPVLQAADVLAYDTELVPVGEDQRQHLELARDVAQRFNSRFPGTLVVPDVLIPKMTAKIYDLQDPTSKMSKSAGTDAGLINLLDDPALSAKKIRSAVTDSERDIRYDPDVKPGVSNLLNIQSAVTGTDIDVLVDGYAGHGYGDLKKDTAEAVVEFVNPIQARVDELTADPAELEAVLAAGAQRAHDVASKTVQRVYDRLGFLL

Row | Structure (SMILES) | pIC50 [1] | pIC50 (ClpP1P2) | further results
1 | CNS(=O)(=O)c1csc(C(=O)N(C)Cc2ccccc2C)c1 | < 4.00 |  | pIC50 (Tryptophan--tRNA ligase): < 3.71
2 | Cn1cc(NC(=O)c2cc[nH]n2)cc(Cl)c1=O | < 4.00 |  | pIC50 (Lysine--tRNA ligase): < 4.30; IC50 [2]: > 50.1 µM; IC50 [3]: > 50.1 µM
3 | Cn1cnc(-c2nc(C(=O)NC3CC3)c3ccccn23)c1 | 4.14 and 4.79 | < 4.00 | 
4 | Cn1cnc(-c2nc(C(=O)NCCN3CCOCC3)c3ccccn23)c1 | 4.81 and 4.47 | < 4.00 | 
5 | CC(C)(C)Nc1nc(-c2cccnc2)c(-c2ccnc(NCCO)n2)s1 | < 4.00 |  | pIC50 [4]: 5.26
6 | CCCOc1ccc(Cl)cc1CNc1ncnc2oc(C)nc12 | 4.91 and 4.70 |  | pIC50 [4]: 4.90; IC50 [2]: > 50.1 µM; IC50 [3]: > 50.1 µM
7 | CS(=O)(=O)c1ccc(-c2cc(C3CC3)c(C#N)c(N)n2)cc1 | 4.98 and 4.94 | < 4.00 | 
8 | Cn1c(Cn2ncc(N3CCCCC3)cc2=O)nc2ccccc21 | < 4.00 | < 4.00 | 
9 | COc1cnc(N2CCN(C)CC2)nc1-c1ccnn1C | 4.63 and 4.60 | < 4.00 | 
10 | CCn1cc(-c2cc(-c3ccn(C)c3)nc(N)c2C#N)cc1C#N | 4.29 and 4.36 | < 4.00 | 
11 | Cc1cnc2c(C(=O)N3CCCC(OCc4ccccn4)C3)cnn2c1 (centres undefined) | < 4.00 |  | pIC50 [5]: < 4.52
12 | NC(=O)c1ccccc1-n1cc(-c2cccc(C(=O)O)c2)cn1 | < 4.00 |  | pIC50 (Histidine--tRNA ligase): 4.05 and < 4.00
13 | COCCNc1nc2c(c(NCC3CCOC3)n1)CCNCC2 (centres undefined) | < 4.00 |  | pIC50 (Leishmania donovani): < 4.30
14 | O=c1[nH]c(NC2CCCC2)nc2nccc(-c3ccco3)c12 | < 4.00 | < 4.00 | 
15 | COc1cnc(N2CC(N3CCOCC3)C2)nc1-c1ccnn1C | 4.28 and 4.50 | < 4.00 | pIC50 [5]: < 4.30; pIC50 (Histidine--tRNA ligase): 5.30 and 4.98
16 | CCCOC(C)Cn1ccc2[nH]c(=O)c(C#N)cc2c1=O (centres undefined) | 4.55 and 4.94 | < 4.00 | pIC50 (Lysine--tRNA ligase): < 4.30
17 | CC(C)c1cc(N2CCC(N)CC2)n2nccc2n1 | < 4.00 |  | pIC50 (Leishmania donovani): < 4.30
18 | CC(C)c1cc(CN2CCC(CC(=O)O)CC2)no1 | 4.91 and 5.11 |  | pIC50 (Tryptophan--tRNA ligase): < 3.71

Row | Structure (SMILES) | pIC50 [1] | pIC50 (ClpP1P2) | further results
19 | COCC(=O)N1CCC(c2cc(C(F)(F)F)n3ccnc3n2)CC1 | 4.55 and 4.44 | < 4.00 | 
20 | CNC(=O)COc1ccc(CNc2cncc(-n3cccn3)n2)cc1 | 4.93 and < 4.00 | < 4.00 | 
21 | COCc1ccc(CNc2cncc(-n3cccn3)n2)cc1 | < 4.24 and 4.72 | < 4.00 | 
22 | NS(=O)(=O)Cc1ccc(CNc2cncc(-n3cccn3)n2)cc1 | 4.71 and < 4.00 | < 4.00 | 
23 | COC(=O)CNC(=O)c1sc(-c2ccc(Cl)s2)nc1C | 4.65 and < 4.00 | < 4.00 | 
24 | Cc1nc(-c2ccc(Cl)s2)sc1C(=O)NC(C)(C)C(N)=O | < 4.00 and 4.68 | < 4.00 | 
25 | Cc1nc(-c2ccc(Cl)s2)sc1C(=O)NCCCC(N)=O | < 4.00 and 4.82 | < 4.00 | 
26 | COc1ccccc1N1CCC(CNS(=O)(=O)c2cccc(C#N)c2)C1 (centres undefined) | 4.30 and < 4.00 |  | pIC50 [5]: < 4.52
27 | Cc1ccc(C(=O)N(C)Cc2cc(C)on2)cn1 | < 4.00 | < 4.00 | 
28 | CCOc1cc(/C=C/c2ncc(C(=O)O)s2)cc(Br)c1O | < 4.00 and 4.62 |  | pIC50 [5]: < 4.52
29 | Cc1nc(C)n(C2CCCN(C(=O)c3nc(C)n4ccccc34)C2)n1 (centres undefined) | 5.06 and 4.90 | < 4.00 | 
30 | Cc1ncc2c(n1)CN(CCCc1nc3ccccc3o1)CC2 | < 4.00 |  | pIC50 (Lysine--tRNA ligase): < 4.30
31 | CCc1nc(C2CCCN2C(=O)c2nc(C)n3ccccc23)no1 (centres undefined) | 5.09 and 5.18 | < 4.00 | 
32 | CCc1n[nH]c(C2CN(C(=O)c3nc(C)n4ccccc34)CCO2)n1 (centres undefined) | 4.74 and 4.93 | < 4.00 | 
33 | O=c1ccc2c(n1CC1CCOCC1)CCN(Cc1ccoc1)CC2 | < 4.00 | < 4.00 | 
34 | CC(C)(CO)CNC(=O)c1cc(-c2cc[nH]n2)n2ccccc12 | 4.65 and 4.76 | < 4.00 | 
35 | CNC(=O)c1cc2c(nc1NCC(C)C)CCN(CC1CC1)CC2 | 4.68 and 4.54 | < 4.00 | 
36 | CC(C)Nc1nc2c(cc1C(=O)NCC1CC1)CCNCC2 | 4.71 | < 4.00 | 
